pIC50: −log10 of the molar value. Counter-ions that a name gives are not always drawn. Like-named read-outs stand apart in the source and are kept apart here.
Assays:
sigma receptor [1] = molecular target: sigma receptor (Rattus norvegicus, UniProt Q9R0C9); assay: biochemical; assay type: binding, rat (male Wistar)
Experimental: (§1) Receptor Binding Experiment
(§2) As test animals, male Wistar rats were used.
(§3) As a [^3 H]-labeled ligand, (+)[^3 H]3-PPP [3-(3-hydroxyphenyl)-N-n-propylpiperidine] was used for sigma receptor, while (-)[^3 H] sulpiride was used for D2 receptor.
(§4) Binding reactions with the use of these [^3 H]-labeled ligands were performed respectively in accordance with the following methods (1) and (2) described in Molecular Pharmacology, 32, p. 772 (1987) and Journal of Pharmacy and Pharmacology, 32, p. 820 (1987).
(1) (+) [^3 H] 3-PPP binding: A membrane preparation obtained from the whole brain of rat, (+) [^3 H] 3-PPP and a test drug were reacted in a 50 mM Tris hydrochloride buffer (pH 8.0) at 21° C. for 90 minutes.
(§5) After the completion of each reaction, the reaction mixture was filtered under sucking onto a glass filter (GF/B) and the radioactivity of the filter paper was measured with a liquid scintillation spectrometer.
The data obtained by reacting in the presence of 10 μM (+) 3-PPP and 10 μM (-) thiapride were regarded respectively as the nonspecific binding of (+) [^3 H] 3-PPP and (-) [^3 H] sulpiride. Then the difference between the total binding and the nonspecific binding was referred to as the specific binding.

D2 receptor [2] = molecular target: D2 receptor (Rattus norvegicus, UniProt P61169); assay: Receptor binding experiment: (-)[3H] sulpiride binding; parameters: species or system rat (male Wistar)
Experimental: as §1, §2, §3, §4
(2) (-) [^3 H] sulpiride binding: A membrane preparation obtained from the corpus striatum of rat, (-) [^3 H] sulpiride and a test drug were reacted in a 50 mM Tris hydrochloride buffer (pH 7.7) at 37° C. for 10 minutes.
as §5
The data obtained by reacting in the presence of 10 μM (+) 3-PPP and 10 μM (-) thiapride were regarded respectively as the nonspecific binding of (+) [^3 H] 3-PPP and (-) [^3 H] sulpiride. Then the difference between the total binding and the nonspecific binding was referred to as the specific binding. The [^3 H]-labeled ligand at a definite concentration and the test drug at various concentrations were reacted under the conditions as specified in the above (1) or (2) to thereby give an inhibition curve.

[3] = test system: (+) SKF 10047-induced abnormal behaviors; assay: Antagonism against (+) SKF 10047-induced abnormal behaviors; assay type: in vivo, ICR male mice; settings: Mus musculus
Experimental: Examination on Antagonism Against (+) SKF 10047-induced Abnormal Behaviors
Preparations were formulated by dissolving 10 mg of each test drug in 1 ml of dimethylsulfoxide, diluting with physiological saline to a concentration of […], and further diluting the obtained solution to 0.01 and 0.001 mg/kg (administration dose: 0.1 ml per 10 g body weight of mouse).
The invention compound A, the comparative drug AA and Rimcazole were each orally administered in doses of 0.03, 0.1, 0.3, 1.0, 3.0 and 10.0 mg/kg. Preparations were formulated by suspending in a 5% solution of acacia.
(+) SKF10047 [(+)-N-allylnormetazocine hydrochloride; manufactured by Sigma] was intraperitoneally administered in a dose of 30 mg/kg. The preparation was formulated by dissolving in physiological saline.
As test animals, ICR male mice (Nippon Charles River) aged 4 to 5 weeks were used. Each group had 10 animals.
Each animal was introduced into a transparent acrylic resin cage (24 cm in length×17.5 cm in width×12 cm in height) and allowed to fully adapt to the environment. 35 minutes after the administration of a preparation of a test drug, (+) SKF10047 was administered. […]] were evaluated for 40 minutes at intervals of 5 minutes and the ED25 (mg/kg) was determined.

sigma receptor [4] = settings: cited from earlier work
D2 receptor [5] = settings: value obtained from spiperone binding; European Journal of Pharmacology, 155, p. 345 (1988); cited from earlier work
[6] = (+)[3H]3-PPP, rat whole brain membrane, pH 8.0, 21° C., 90 minutes
[7] = read-out: 50% inhibitory concentration (IC50), D2, (-)[3H] sulpiride, rat corpus striatum membrane, pH 7.7, 37° C., 10 minutes
[8] = read-out: 50% inhibitory concentration (IC50), Sigma, (+)[3H]3-PPP, rat whole brain membrane, pH 8.0, 21° C., 90 minutes
[9] = (-)[3H] sulpiride, rat corpus striatum membrane, pH 7.7, 37° C., 10 minutes
[10] = oral, 35 minutes before (+) SKF10047 30 mg/kg i.p., stereotypy scores for 40 minutes at intervals of 5 minutes, read-out: ED25

Sequence of D2 receptor (Rattus norvegicus, UniProt P61169) (P61169 whole entry): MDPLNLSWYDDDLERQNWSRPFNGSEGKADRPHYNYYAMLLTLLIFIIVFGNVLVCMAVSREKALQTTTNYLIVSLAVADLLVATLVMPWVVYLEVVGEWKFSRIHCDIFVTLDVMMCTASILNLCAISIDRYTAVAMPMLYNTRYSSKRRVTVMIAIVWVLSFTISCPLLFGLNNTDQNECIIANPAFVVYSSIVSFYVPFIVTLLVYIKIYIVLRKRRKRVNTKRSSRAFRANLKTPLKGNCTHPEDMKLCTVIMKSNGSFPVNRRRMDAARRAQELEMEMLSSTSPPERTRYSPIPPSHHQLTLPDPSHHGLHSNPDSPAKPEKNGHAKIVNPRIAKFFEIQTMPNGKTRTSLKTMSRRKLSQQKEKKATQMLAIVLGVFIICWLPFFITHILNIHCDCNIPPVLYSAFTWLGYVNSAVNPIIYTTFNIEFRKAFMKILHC
Sequence of sigma receptor (Rattus norvegicus, UniProt Q9R0C9) (Q9R0C9 whole entry): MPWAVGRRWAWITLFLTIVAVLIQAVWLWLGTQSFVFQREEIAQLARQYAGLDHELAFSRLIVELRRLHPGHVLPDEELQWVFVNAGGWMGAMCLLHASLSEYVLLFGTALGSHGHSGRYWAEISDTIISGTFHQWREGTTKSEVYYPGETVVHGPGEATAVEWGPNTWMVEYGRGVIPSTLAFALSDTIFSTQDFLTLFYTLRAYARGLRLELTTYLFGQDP

CCCN1CCCC(c2cccc(O)c2)C1 (single isomer, unassigned) [Compound 3-PPP, 3-(3-hydroxyphenyl)-N-n-propylpiperidine, reference compound]
pIC50 (sigma receptor [1]; [6]): 7.61

CCCN(CCC)CCc1cc(Cl)ccc1OCCc1ccccc1.O=C(O)C(=O)O [A, N,N-Di-n-propyl-2-[5-chloro-2-(2-phenylethoxy)phenyl]ethylamine oxalate]
pIC50 (D2 receptor [2]; [7]): 6.95 | pIC50 (sigma receptor [1]; [8]): 8.14 | ED25 ([3]; po): 0.235 mg/kg

COc1ccc(CCN(C)C)cc1OCc1ccccc1.Cl [AA, N,N-dimethyl-2-(4-methoxy-3-benzyloxyphenyl)ethylamine hydrochloride, reference compound]
pIC50 (D2 receptor [2]): 4.39 | pIC50 (sigma receptor [1]): 7.03 | ED25 ([3]; po): 23.6 mg/kg

CCCN(CCC)CCCc1cc(Cl)ccc1OCCc1ccccc1 [B, N,N-Di-n-propyl-3-[5-chloro-2-(2-phenylethoxy)phenyl]propylamine oxalate]
pIC50 (D2 receptor [2]; [9]): < 6.00 | pIC50 (sigma receptor [1]; [6]): 7.54

CCCN(CCC)CCCCc1cc(Cl)ccc1OCCc1ccccc1 [C, N,N-Di-n-propyl-4-[5-chloro-2-(2-phenylethoxy)phenyl]butylamine oxalate]
pIC50 (sigma receptor [1]; [6]): 7.58

CCCN(CCC)CCc1ccc(Cl)cc1OCCc1ccccc1 [D, N,N-Di-n-propyl-2-[4-chloro-2-(2-phenylethoxy)phenyl]ethylamine hydrochloride]
pIC50 (D2 receptor [2]): 5.84 | pIC50 (sigma receptor [1]; [8]): 7.75

CCCN(CCC)CCc1cc(Br)ccc1OCCc1ccccc1 [E, N,N-Di-n-propyl-2-[5-bromo-2-(2-phenylethoxy)phenyl]ethylamine oxalate]
pIC50 (D2 receptor [2]; [7]): 6.77 | pIC50 (sigma receptor [1]; [8]): 7.95

CCCN(CCC)CCCc1cc(Br)ccc1OCCc1ccccc1 [F, N,N-Di-n-propyl-3-[5-bromo-2-(2-phenylethoxy)phenyl]propylamine oxalate]
pIC50 (D2 receptor [2]; [7]): 6.36 | pIC50 (sigma receptor [1]; [8]): 7.96

CCCN(CCC)CCc1cc(F)ccc1OCCc1ccccc1 [G, N,N-Di-n-propyl-2-[5-fluoro-2-(2-phenylethoxy)phenyl]ethylamine hydrochloride]
pIC50 (D2 receptor [2]): 5.72 | pIC50 (sigma receptor [1]): 7.88

CCCN(CCC)CCc1cccc(F)c1OCCc1ccccc1 [H, N,N-Di-n-propyl-2-[3-fluoro-2-(2-phenylethoxy)phenyl]ethylamine oxalate]
pIC50 (D2 receptor [2]): 5.45 | pIC50 (sigma receptor [1]): 7.67

CCCN(CCC)CCc1ccc(OC)c(OCCc2ccccc2)c1.O=C(O)C(=O)O [I, N,N-Di-n-propyl-2-[4-methoxy-3-(2-phenylethoxy)phenyl]ethylamine oxalate]
pIC50 (D2 receptor [2]): < 6.00 | ED25 ([3]; po): 0.0008 mg/kg

CCCN(CCC)CCCc1ccc(OC)c(OCCc2ccccc2)c1.O=C(O)C(=O)O [J, N,N-Di-n-propyl-3-[4-methoxy-3-(2-phenylethoxy)phenyl]propylamine oxalate]
pIC50 (D2 receptor [2]; [7]): 6.02 | pIC50 (sigma receptor [1]; [6]): 9.01 | ED25 [3, 10]: 0.00263 mg/kg

CCCN(CCC)CCc1ccc(OC)c(OCCCc2ccccc2)c1 [K, N,N-Di-n-propyl-2-[4-methoxy-3-(3-phenylpropoxy)phenyl]ethylamine oxalate]
pIC50 (sigma receptor [1]; [8]): 8.33

COc1ccc(CCN2CCN(c3ccccc3)CC2)cc1OCCc1ccccc1 [L, N-2-[4-Methoxy-3-(2-phenylethoxy)phenyl]ethyl-N'-phenylpiperazine oxalate]
pIC50 (D2 receptor [2]; [7]): 6.74 | pIC50 (sigma receptor [1]; [8]): 7.48

CCCN(CCC)CCc1ccc(O)c(OCCc2ccccc2)c1 [M, N,N-Di-n-propyl-2-[4-hydroxy-3-(2-phenylethoxy)phenyl]ethylamine hydrochloride]
pIC50 (D2 receptor [2]): 5.60 | pIC50 (sigma receptor [1]; [8]): 8.51

CCCN(CCC)CCc1ccc(OC)c(OCCc2ccc(F)cc2)c1 [N, N,N-Di-n-propyl-2-[4-methoxy-3-[2-(4-fluorophenyl)ethoxy]phenyl]ethylaminehydrochloride]
pIC50 (D2 receptor [2]; [9]): < 5.00 | pIC50 (sigma receptor [1]): 8.99

CCCN(CCC)CCc1ccc(OC)c(OCCc2cccc(Cl)c2)c1 [O, N,N-Di-n-propyl-2-[4-methoxy-3-[2-(3-chlorophenyl)ethoxy]phenyl]ethylamineoxalate]
pIC50 (D2 receptor [2]; [9]): 5.18 | pIC50 (sigma receptor [1]; [8]): 8.83

CCCN(CCC)CCc1ccc(OC)c(OCCc2ccc(OC)cc2)c1 [P, N,N-Di-n-propyl-2-[4-methoxy-3-[2-(4-methoxyphenyl)ethoxy]phenyl]ethylamine oxalate]
pIC50 (D2 receptor [2]): 5.30 | pIC50 (sigma receptor [1]): 8.99

CCCN(CCC)CCc1ccc(OC)c(OCCc2cccs2)c1 [Q, N,N-Di-n-propyl-2-[4-methoxy-3-[2-(2-thienyl)ethoxy]phenyl]ethylamine hydrochloride]
pIC50 (D2 receptor [2]): < 5.00 | pIC50 (sigma receptor [1]; [8]): 8.03

CCCN(CCC)CCc1ccc(OCCc2ccccc2)c(OC)c1 [R, N,N-Di-n-propyl-2-[3-methoxy-4-(2-phenylethoxy)phenyl]ethylamine oxalate]
pIC50 (D2 receptor [2]): < 5.00 | pIC50 (sigma receptor [1]): 7.94

C[C@@H]1CN(CCCn2c3ccccc3c3ccccc32)C[C@H](C)N1 [Rimcazole]
affinity and specificity for sigma receptor (in words) (sigma receptor [4]; background art statement): restricted | pIC50 (sigma receptor [4]; data of European Journal of Pharmacology, 155, p. 345 (1988)): 5.79 | pIC50 (D2 receptor [5]): 4.07 | ED25 [3, 10]: 37 mg/kg

CCCN(CCCO)CCc1ccc(OC)c(OCCc2ccccc2)c1 [S, N-n-propyl-N-3-hydroxypropyl-2-[4-methoxy-3-(2-phenylethoxy)phenyl]ethylamine oxalate]
pIC50 (D2 receptor [2]; [9]): < 5.00 | pIC50 (sigma receptor [1]; [6]): 7.73

CCCN(CCC)CCc1cccc(OC)c1OCCc1ccccc1.O=C(O)C(=O)O [T, N,N-Di-n-propyl-2-[3-methoxy-2-(2-phenylethoxy)phenyl]ethylamine oxalate]
pIC50 (D2 receptor [2]): < 5.00 | pIC50 (sigma receptor [1]; [8]): 8.57 | ED25 ([3]; po): 0.0017 mg/kg

CCCN(CCC)CCCc1cccc(OC)c1OCCc1ccccc1 [U, N,N-Di-n-propyl-3-[3-methoxy-2-(2-phenylethoxy)phenyl]propylamine oxalate]
pIC50 (sigma receptor [1]; [6]): 7.90

CCCN(CCC)CCc1cccc(OC)c1OCCCc1ccccc1 [V, N,N-Di-n-propyl-2-[3-methoxy-2-(3-phenylpropoxy)phenyl]ethylamine oxalate]
pIC50 (sigma receptor [1]): 8.78

COc1cccc(CCN2CCCC2)c1OCCc1ccccc1 [W, N-2-[3-Methoxy-2-(2-phenylethoxy)phenyl]ethylpyrrolidine oxalate]
pIC50 (D2 receptor [2]): 5.27

CCCN(CCC)CCc1cc(OC)ccc1OCCc1ccccc1 [X, N,N-Di-n-propyl-2-[5-methoxy-2-(2-phenylethoxy)phenyl]ethylamine hydrochloride]
pIC50 (D2 receptor [2]; [7]): 6.10 | pIC50 (sigma receptor [1]; [8]): 8.15

CCCN(CCC)CCc1ccc(OC)cc1OCCc1ccccc1 [Y, N,N-Di-n-propyl-2-[4-methoxy-2-(2-phenylethoxy)phenyl]ethylamine oxalate]
pIC50 (D2 receptor [2]): 5.63 | pIC50 (sigma receptor [1]; [8]): 8.18

CCCN(CCC)CCc1ccc(OCCc2ccccc2)cc1OC [Z, N,N-Di-n-propyl-2-[2-methoxy-4-(2-phenylethoxy)phenyl]ethylamine oxalate]
pIC50 (D2 receptor [2]): 5.04 | pIC50 (sigma receptor [1]; [8]): 8.17

— patent US5495046A, “Alkoxyphenylalkylamine derivatives” (Taisho Pharmaceutical Co., Ltd., priority 1991, dated 1996)
